In US20260062443A1 (ALEXION PHARMACEUTICALS, INC., priority 2022, published 2026):

Target: T1, Human complement C1s enzyme (Homo sapiens, UniProt P09871)
T1 sequence (P09871 438-688 limits assumed): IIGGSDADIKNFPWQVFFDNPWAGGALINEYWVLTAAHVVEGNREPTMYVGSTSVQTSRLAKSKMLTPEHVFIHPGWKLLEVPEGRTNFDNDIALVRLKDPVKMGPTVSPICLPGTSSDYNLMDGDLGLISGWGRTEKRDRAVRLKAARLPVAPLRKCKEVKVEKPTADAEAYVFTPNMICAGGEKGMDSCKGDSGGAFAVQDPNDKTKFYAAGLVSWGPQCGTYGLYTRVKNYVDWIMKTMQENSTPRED
T1 sequence (P09871 16-437 partner limits assumed): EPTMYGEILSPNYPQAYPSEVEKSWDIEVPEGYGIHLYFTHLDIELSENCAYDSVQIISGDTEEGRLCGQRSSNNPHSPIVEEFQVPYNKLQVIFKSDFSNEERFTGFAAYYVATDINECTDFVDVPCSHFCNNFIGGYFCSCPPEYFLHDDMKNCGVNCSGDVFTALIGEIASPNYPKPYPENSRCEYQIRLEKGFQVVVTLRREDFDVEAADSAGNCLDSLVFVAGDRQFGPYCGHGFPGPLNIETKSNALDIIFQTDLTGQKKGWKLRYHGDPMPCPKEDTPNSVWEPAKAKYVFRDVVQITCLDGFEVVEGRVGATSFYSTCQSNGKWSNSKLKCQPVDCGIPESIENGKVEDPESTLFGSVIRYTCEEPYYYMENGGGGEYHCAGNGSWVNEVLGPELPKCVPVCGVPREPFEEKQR
Assay: Human C1s enzyme assay
Type: biochemical
Conditions: human complement C1s enzyme 1.16 nM, substrate Z-L-Lys-SBzl 100 μM, 5 min preincubation; read-out: IC50 (Stars), C1s Inhibiting Activity
Procedure, shortened: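 Serum-purified human C1s (1.16 nM final) preincubated 5 min at room temperature with compound in 50 mM Tris, 1 M NaCl, pH 7.5. Z-L-Lys-SBzl and DTNB added at 100 μM each; A405 followed every 30 s for 30 min, and IC50 obtained by nonlinear regression of reaction rates.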

SMILES | IC50 [µM]
C[C@@H](NC(=O)[C@@H]1C[C@@H](C(F)(F)F)CN1C(=O)CNC(=O)c1ccc2c(c1)Oc1ccccc1S2)c1cc2cnccc2[nH]1 [Compound 176, (2S,4R)-N-((R)-1-(1H-pyrrolo[3,2-c]pyridin-2-yl)ethyl)-1-((phenoxathiine-3-carbonyl)glycyl)-4-(trifluoromethyl)pyrrolidine-2-carboxamide] | < 0.1
C[C@@H](NC(=O)[C@@H]1C[C@@H](c2ncco2)CN1C(=O)CNC(=O)c1ccc2c(c1)Oc1ccccc1S2)c1cc2cnccc2[nH]1 [Compound 177, (2S,4R)-N-((R)-1-(1H-pyrrolo[3,2-c]pyridin-2-yl)ethyl)-4-(oxazol-2-yl)-1-((phenoxathiine-3-carbonyl)glycyl)pyrrolidine-2-carboxamide] | < 0.1
C[C@@H](NC(=O)[C@@H]1C[C@H](c2ncco2)CN1C(=O)CNC(=O)c1ccc2c(c1)Oc1ccccc1S2)c1cc2cnccc2[nH]1 [Compound 178, (2S,4S)-N-((R)-1-(1H-pyrrolo[3,2-c]pyridin-2-yl)ethyl)-4-(oxazol-2-yl)-1-((phenoxathiine-3-carbonyl)glycyl)pyrrolidine-2-carboxamide] | < 0.1
O=C(NCC(=O)N1CC2(C[C@H]1C(=O)NCc1cc3cnccc3[nH]1)OCCO2)c1ccc2c(c1)sc1ccccc12 [Compound 179, (S)-N-((1H-pyrrolo[3,2-c]pyridin-2-yl)methyl)-7-((dibenzo[b,d]thiophene-3-carbonyl)glycyl)-1,4-dioxa-7-azaspiro[4.4]nonane-8-carboxamide] | < 0.1
C[C@@]12C[C@@H]1N(C(=O)CNC(=O)c1ccc3c(c1)Oc1ccccc1S3)[C@H](C(=O)NCc1ccc3nc(N)[nH]c3c1)C2 [Compound 181, (1S,3S,5S)-N-((2-amino-1H-benzo[d]imidazol-6-yl)methyl)-5-methyl-2-((phenoxathiine-3-carbonyl)glycyl)-2-azabicyclo[3.1.0]hexane-3-carboxamide] | < 0.1
C[C@@H](NC(=O)[C@@H]1CC(Cn2ccnc2)CN1C(=O)CNC(=O)c1ccc2c(c1)Oc1ccccc1S2)c1cc2cnccc2[nH]1 (stereo partly drawn) [Compound 184, (2S)-4-((1H-imidazol-1-yl)methyl)-N-((R)-1-(1H-pyrrolo[3,2-c]pyridin-2-yl)ethyl)-1-((phenoxathiine-3-carbonyl)glycyl)pyrrolidine-2-carboxamide] | < 0.1
C[C@@H](NC(=O)[C@@H]1C[C@]2(Cc3nccs3)C[C@@H]2N1C(=O)CNC(=O)c1ccc2c(c1)Oc1ccccc1S2)c1cc2cnccc2[nH]1 [Compound 186, (1S,3S,5S)-N-((R)-1-(1H-pyrrolo[3,2-c]pyridin-2-yl)ethyl)-2-((phenoxathiine-3-carbonyl)glycyl)-5-(thiazol-2-ylmethyl)-2-azabicyclo[3.1.0]hexane-3-carboxamide] | < 0.1
O=C(NCC(=O)N1C[C@@](F)(CF)C[C@H]1C(=O)NCc1cc2cnccc2[nH]1)c1ccc2oc3ccccc3c2c1 [Compound 187, (2S,4R)-N-((1H-pyrrolo[3,2-c]pyridin-2-yl)methyl)-1-((dibenzo[b,d]furan-2-carbonyl)glycyl)-4-fluoro-4-(fluoromethyl)pyrrolidine-2-carboxamide] | < 0.1
O=C(NCC(=O)N1CCC[C@H]1C(=O)NCc1cc2cnccc2[nH]1)c1ccc2c(c1)Oc1ccccc1S2 [Compound 188, (S)-N-((1H-pyrrolo[3,2-c]pyridin-2-yl)methyl)-1-((phenoxathiine-3-carbonyl)glycyl)pyrrolidine-2-carboxamide] | < 0.1
C[C@@H](NC(=O)[C@@H]1C[C@@H](OC(F)F)CN1C(=O)CNC(=O)c1ccc(Oc2ccccc2)cc1)c1cc(B(O)O)cs1 [Compound 189, (5-((R)-1-((2S,4R)-4-(difluoromethoxy)-1-((4-phenoxybenzoyl)glycyl)pyrrolidine-2-carboxamido)ethyl)thiophen-3-yl)boronic acid] | > 1
C[C@@H](NC(=O)[C@@H]1CC2(CC2)CN1C(=O)CNC(=O)c1ccc2c(c1)Oc1ccccc1S2)c1cc2cnccc2[nH]1 [Compound 190, (S)-N-((R)-1-(1H-pyrrolo[3,2-c]pyridin-2-yl)ethyl)-5-((phenoxathiine-3-carbonyl)glycyl)-5-azaspiro[2.4]heptane-6-carboxamide] | < 0.1
COC[C@@]12C[C@@H]1N(C(=O)CNC(=O)c1ccc3c(c1)Oc1ccccc1S3)[C@H](C(=O)N[C@H](C)c1cc3cnccc3[nH]1)C2 [Compound 191, (1S,3S,5R)-N-((R)-1-(1H-pyrrolo[3,2-c]pyridin-2-yl)ethyl)-5-(methoxymethyl)-2-((phenoxathiine-3-carbonyl)glycyl)-2-azabicyclo[3.1.0]hexane-3-carboxamide] | < 0.1
O=C(NCC(=O)N1C[C@H](OC(F)F)C[C@H]1C(=O)NCc1ccc2[nH]ncc2c1)c1ccc2c(c1)Oc1ccccc1S2 [Compound 192, (2S,4R)-N-((1H-indazol-5-yl)methyl)-4-(difluoromethoxy)-1-((phenoxathiine-3-carbonyl)glycyl)pyrrolidine-2-carboxamide] | > 1
O=C(NCC(=O)N1C[C@H](OC(F)F)C[C@H]1C(=O)NCc1ccc2nc[nH]c2c1)c1ccc2c(c1)Oc1ccccc1S2 [Compound 193, (2S,4R)-N-((1H-benzo[d]imidazol-6-yl)methyl)-4-(difluoromethoxy)-1-((phenoxathiine-3-carbonyl)glycyl)pyrrolidine-2-carboxamide] | > 1
O=C(NCC(=O)N1C[C@H](OC(F)F)C[C@H]1C(=O)NCc1ccc2[nH]ccc2c1)c1ccc2c(c1)Oc1ccccc1S2 [Compound 195, (2S,4R)-N-((1H-indol-5-yl)methyl)-4-(difluoromethoxy)-1-((phenoxathiine-3-carbonyl)glycyl)pyrrolidine-2-carboxamide] | > 1
O=C(NCC(=O)N1C[C@H](OC(F)F)C[C@H]1C(=O)NCc1ccc2cc[nH]c2c1)c1ccc2c(c1)Oc1ccccc1S2 [Compound 196, (2S,4R)-N-((1H-indol-6-yl)methyl)-4-(difluoromethoxy)-1-((phenoxathiine-3-carbonyl)glycyl)pyrrolidine-2-carboxamide] | > 1
O=C(NCC(=O)N1C[C@H](OC(F)F)C[C@H]1C(=O)NCc1ccc2c(c1)CCN2)c1ccc2c(c1)Oc1ccccc1S2 [Compound 197, (2S,4R)-4-(difluoromethoxy)-N-(indolin-5-ylmethyl)-1-((phenoxathiine-3-carbonyl)glycyl)pyrrolidine-2-carboxamide] | > 1
O=C(NCC(=O)N1C[C@H](OC(F)F)C[C@H]1C(=O)NCc1ccc2c(c1)NCC2)c1ccc2c(c1)Oc1ccccc1S2 [Compound 198, (2S,4R)-4-(difluoromethoxy)-N-(indolin-6-ylmethyl)-1-((phenoxathiine-3-carbonyl)glycyl)pyrrolidine-2-carboxamide] | > 1
O=C(NCC(=O)N1C[C@H](OC(F)F)C[C@H]1C(=O)NCc1ccc2cn[nH]c2c1)c1ccc2c(c1)Oc1ccccc1S2 [Compound 199, (2S,4R)-N-((1H-indazol-6-yl)methyl)-4-(difluoromethoxy)-1-((phenoxathiine-3-carbonyl)glycyl)pyrrolidine-2-carboxamide] | > 1
C[C@@H](NC(=O)[C@@H]1C[C@]2(C)C[C@@H]2N1C(=O)CNC(=O)c1ccc2oc3ccccc3c2c1)c1cc2cnccc2[nH]1 [Compound 200, (1S,3S,5S)-N-((R)-1-(1H-pyrrolo[3,2-c]pyridin-2-yl)ethyl)-2-((dibenzo[b,d]furan-2-carbonyl)glycyl)-5-methyl-2-azabicyclo[3.1.0]hexane-3-carboxamide] | < 0.1
